Columns and labels:
Format in all cases: in vivo
[1] = tested on: Echinochloa crus-galli (ECHCG); test: Pre-emergence Test (glasshouse, percentage damage to the plant); conditions: 1000 g/ha unless otherwise stated, five-point scale
Solanum nigrum (SOLNI) [2] = test: as above; conditions: 1000 g/ha unless otherwise stated, five-point scale
Setaria faberi (SETFA) [3] = test: as above; conditions: 1000 g/ha unless otherwise stated, five-point scale
Lolium perenne (LOLPE) [4] = test: Post-emergence Test (glasshouse, percentage damage to the plant); conditions: post-emergence spray, 1000 g/ha unless otherwise stated, evaluated after 13 days
Procedure, shortened: (§1)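 Seeds are sown in standard soil under controlled glasshouse conditions. The pots are then sprayed at 1000 g/ha, unless otherwise stated, with compound in acetone/water (50:50) containing 0.5% Tween 20. After 13 days further growth, percentage plant damage is scored from 1 (0-20%) to 5 (81-100%).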

[5] = tested on: Echinochloa crus-galli (ECHCG); test: as above; conditions: post-emergence spray, 1000 g/ha unless otherwise stated, evaluated after 13 days
Procedure, shortened: as §1

[6] = tested on: Amaranthus retoflexus (AMARE); test: as above; conditions: post-emergence spray, 1000 g/ha unless otherwise stated, evaluated after 13 days
Procedure, shortened: as §1

Solanum nigrum (SOLNI) [7] = test: as above; conditions: post-emergence spray, 1000 g/ha unless otherwise stated, evaluated after 13 days
Procedure, shortened: as §1

[8] = tested on: Ipomoea hederacea (IPOHE); test: as above; conditions: post-emergence spray, 1000 g/ha unless otherwise stated, evaluated after 13 days
Procedure, shortened: (§2)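 Sown pots; spray 1000 g/ha (unless stated) in acetone/water 50:50 + 0.5% Tween 20; glasshouse 24/16 °C, 14 h light, 65% RH; watered twice daily; % damage read at 13 days, scored 1–5.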

Setaria faberi (SETFA) [9] = test: as above; conditions: post-emergence spray, 1000 g/ha unless otherwise stated, evaluated after 13 days
Procedure, shortened: as §2

[10] = tested on: Amaranthus retoflexus (AMARE); test: Pre-emergence Test (glasshouse, percentage damage to the plant); conditions: 1000 g/ha unless otherwise stated, five-point scale
Lolium perenne (LOLPE) [11] = test: as above; conditions: 1000 g/ha unless otherwise stated, five-point scale
[12] = tested on: Ipomoea hederacea (IPOHE); test: as above; conditions: 1000 g/ha unless otherwise stated, five-point scale

Structure (SMILES)	percentage damage to the plant, ECHCG [1]	percentage damage to the plant, SOLNI (Solanum nigrum (SOLNI) [2])	percentage damage to the plant, SETFA (Setaria faberi (SETFA) [3])	Post-emergence Test LOLPE, percentage damage to the plant (five-point scale) (Lolium perenne (LOLPE) [4])	Post-emergence Test ECHCG, percentage damage to the plant (five-point scale) [5]	Post-emergence Test AMARE, percentage damage to the plant (five-point scale) [6]	Post-emergence Test SOLNI, percentage damage to the plant (five-point scale) (Solanum nigrum (SOLNI) [7])	Post-emergence Test IPOHE, percentage damage to the plant (five-point scale) [8]	Post-emergence Test SETFA, percentage damage to the plant (five-point scale) (Setaria faberi (SETFA) [9])	percentage damage to the plant, AMARE [10]	percentage damage to the plant, LOLPE (Lolium perenne (LOLPE) [11])	percentage damage to the plant, IPOHE [12]
CCn1c(C)c(-c2ccccn2)c(=O)c(C(=O)O)c1-c1ccc(Cl)c(Cl)c1.Cl [Compound 28, 2-(3,4-dichlorophenyl)-1-ethyl-6-methyl-4-oxo-5-pyridin-1-ium-2-yl-pyridine-3-carboxylic acid;chloride]	1 (1=0-20%)	2 (2=21-40%)	1 (1=0-20%)	2 (2=21-40%)	2 (2=21-40%)	2 (2=21-40%)	3 (3=41-60%)	4 (4=61-80%)	3 (3=41-60%)	1 (1=0-20%)	1 (1=0-20%)	3 (3=41-60%)
CCn1c(C)c(-c2ccc(Cl)c(Cl)c2)c(=O)c(C(=O)O)c1-c1ccc(Cl)c(Cl)c1 [Compound 29, 2,5-bis(3,4-dichlorophenyl)-1-ethyl-6-methyl-4-oxo-pyridine-3-carboxylic acid]	1 (1=0-20%)	1 (1=0-20%)	3 (3=41-60%)	2 (2=21-40%)	1 (1=0-20%)	5 (5=81-100%)	3 (3=41-60%)	2 (2=21-40%)	3 (3=41-60%)	3 (3=41-60%)	1 (1=0-20%)	1 (1=0-20%)
CCn1c(C)c(-c2ccsc2)c(=O)c(C(=O)O)c1-c1ccc(Cl)c(Cl)c1 [Compound 30, 2-(3,4-dichlorophenyl)-1-ethyl-6-methyl-4-oxo-5-(3-thienyl)pyridine-3-carboxylic acid]	3 (3=41-60%)	2 (2=21-40%)	4 (4=61-80%)	2 (2=21-40%)	2 (2=21-40%)	4 (4=61-80%)	3 (3=41-60%)	3 (3=41-60%)	3 (3=41-60%)	1 (1=0-20%)	2 (2=21-40%)	2 (2=21-40%)
CCn1c(C)c(-c2ccccc2C)c(=O)c(C(=O)O)c1-c1ccc(Cl)c(Cl)c1 [Compound 31, 2-(3,4-dichlorophenyl)-1-ethyl-6-methyl-5-(o-tolyl)-4-oxo-pyridine-3-carboxylic acid]	1 (1=0-20%)	4 (4=61-80%)	4 (4=61-80%)	2 (2=21-40%)	1 (1=0-20%)	3 (3=41-60%)	4 (4=61-80%)	2 (2=21-40%)	3 (3=41-60%)	1 (1=0-20%)	1 (1=0-20%)	1 (1=0-20%)
CCn1c(C)c(-c2ccc(S(C)(=O)=O)cc2)c(=O)c(C(=O)O)c1-c1ccc(Cl)c(Cl)c1 [Compound 32, 2-(3,4-dichlorophenyl)-1-ethyl-6-methyl-5-(4-methylsulfonylphenyl)-4-oxo-pyridine-3-carboxylic acid]	4 (4=61-80%)	1 (1=0-20%)	4 (4=61-80%)	1 (1=0-20%)	4 (4=61-80%)	1 (1=0-20%)	3 (3=41-60%)	1 (1=0-20%)	3 (3=41-60%)	1 (1=0-20%)	1 (1=0-20%)	1 (1=0-20%)
CCn1c(C)c(-c2ccoc2)c(=O)c(C(=O)O)c1-c1ccc(Cl)c(Cl)c1 [Compound 33, 2-(3,4-dichlorophenyl)-1-ethyl-5-(3-furyl)-6-methyl-4-oxo-pyridine-3-carboxylic acid]	1 (1=0-20%)	1 (1=0-20%)	1 (1=0-20%)	2 (2=21-40%)	2 (2=21-40%)	3 (3=41-60%)	3 (3=41-60%)	3 (3=41-60%)	1 (1=0-20%)	1 (1=0-20%)	1 (1=0-20%)	2 (2=21-40%)
CCn1c(C)c(-c2ccc(OCc3ccccc3)cc2)c(=O)c(C(=O)O)c1-c1ccc(Cl)c(Cl)c1 [Compound 34, 5-(4-benzyloxyphenyl)-2-(3,4-dichlorophenyl)-1-ethyl-6-methyl-4-oxo-pyridine-3-carboxylic acid]	1 (1=0-20%)	2 (2=21-40%)	3 (3=41-60%)	1 (1=0-20%)	2 (2=21-40%)	4 (4=61-80%)	4 (4=61-80%)	1 (1=0-20%)	2 (2=21-40%)	3 (3=41-60%)	2 (2=21-40%)	1 (1=0-20%)
CCn1c(C)c(-c2ccnnc2)c(=O)c(C(=O)O)c1-c1ccc(Cl)c(Cl)c1 [Compound 35, 2-(3,4-dichlorophenyl)-1-ethyl-6-methyl-4-oxo-5-pyridazin-4-yl-pyridine-3-carboxylic acid;2,2,2-trifluoroacetic acid, 2,2,2-trifluoroacetate]	1 (1=0-20%)	1 (1=0-20%)	1 (1=0-20%)	1 (1=0-20%)	2 (2=21-40%)	1 (1=0-20%)	1 (1=0-20%)	1 (1=0-20%)	2 (2=21-40%)	1 (1=0-20%)	1 (1=0-20%)	1 (1=0-20%)
CCn1c(C)c(-c2ccc([N+](=O)[O-])cc2)c(=O)c(C(=O)O)c1-c1ccc(Cl)c(Cl)c1 [Compound 36, 2-(3,4-dichlorophenyl)-1-ethyl-6-methyl-5-(4-nitrophenyl)-4-oxo-pyridine-3-carboxylic acid]	5 (5=81-100%)	3 (3=41-60%)	5 (5=81-100%)	1 (1=0-20%)	5 (5=81-100%)	1 (1=0-20%)	2 (2=21-40%)	1 (1=0-20%)	4 (4=61-80%)	1 (1=0-20%)	1 (1=0-20%)	1 (1=0-20%)

Reference: patent US12660819B2, “Herbicidal derivatives” (SYNGENTA CROP PROTECTION AG, priority 2020, dated 2026)
